The target of assay [1] is T1, HIV protease (Human immunodeficiency virus type 1 group M subtype B, UniProt P04585).
T1 construct: and purified protease
In words: HIV Protease Assay. Format: biochemical. Conditions: pH 5.5, 10 μM inhibitor, 4% DMSO, 450 μM substrate, pH 5.5, 30 minutes at 37° C., RP-HPLC; read-out: HIV Protease % Inhibition at 10 μM. The essentials:
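Purified protease cleaved 450 μM octapeptide substrate in 50 mM sodium acetate pH 5.5 with 100 μg/ml BSA for 30 minutes at 37° C; product analyzed by reverse-phase HPLC at UV220 after H3PO4 quench. Inhibitors tested at final 10 μM with 4% DMSO.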

Assay [2] has as its system RF strain of HIV (CEM-SS cells). The assay can be described thus: Cell Culture Anti-HIV Activity (cell viability, formazan). The following applies: Human immunodeficiency virus 1, CEM-SS, 144 h, CEM-SS cells, RF strain of HIV, multiplicity of infection 0.04, 6 days at 37° C., 450 nm; read-out: HIV (CEM Cells) IC50. The format is cell-based. In outline:
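CEM-SS cells (5000/well) infected with HIV RF at MOI 0.04, exposed to half-log serial compound dilutions, incubated 6 days at 37° C. Viability read by tetrazolium reduction to formazan, absorbance 450 nm. IC50 is the concentration raising formazan in infected cells to 50% of uninfected, drug-free cells.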

As usually defined, the inhibition is the change of the read-out against control, counted positive when it falls. The IC50 is the concentration needed to halve the response being measured. Consider `CC(C)(CO)OC(=O)N[C@@H](Cc1ccccc1)[C@H](O)CNC[C@@H](O)[C@H](Cc1ccccc1)NC(=O)C1(O)CCCC1(C)C` (single isomer, unassigned; isomer a) [Compound 368, [1S-[1R*,2S*(2S*,3R*)] -[3-[[3-[[(2,2-Dimethyl-1-hydroxycyclopentyl)-carbonyl]amino]-2-hydroxy-4-phenylbutyl]amino]-2-hydroxy-1-(phenylmethyl)propyl]carbamic acid, 2-hydroxy-1,1-dimethylethyl ester, isomer A], for which the inhibition at 10 µM in assay [1] worked out at 98%. For the same compound, the IC50 in assay [2] came to 17 nM.
For `CC(O)COc1ccc(C[C@H](NC(=O)OC(C)(C)C)[C@H](O)CNC[C@@H](O)[C@H](Cc2ccccc2)NC(=O)OC(C)(C)C)cc1` (stereo partly drawn) [Compound 306, [1S-[1R*, 2S* (2S*, 3R*)]-[3-[[(1,1-Dimethylethoxy)carbonyl]amino]-2-hydroxy-4-[4-(2-hydroxypropoxy)phenyl]butyl]amino]-2-hydroxy-1-(phenylmethyl)propyl]carbamic acid, 1.1-dimethylethyl ester], in that order: 100% and 60 nM.
As to `CC(C)(C)OC(=O)N[C@@H](Cc1ccccc1)[C@H](O)CNC[C@@H](O)[C@H](Cc1ccccc1)NC(=O)O[C@H]1CCc2ccccc21` [Compound 146, [1S-(1R*,2S*)]-[Iminobis[2-hydroxy-1-(phenylmethyl)-3,1-propanediyl)]biscarbamic acid, 1,1-dimethylethyl(S)-2,3-dihydro-1H-inden-1-yl ester], the inhibition at 10 µM in assay [1] is 98%. Further, the IC50 in assay [2] is at least 3000 nM.
The like results for `CC(C)(C)OC(=O)N[C@@H](Cc1ccccc1)[C@H](O)CNC[C@@H](O)[C@H](Cc1ccccc1)NC(=O)OC(C)(C)Cc1ccccc1` [Compound 154, [R-(R*,S*)]-Iminobis[2-hydroxy-1-(phenylmethyl)-3,1-propanediyl)]biscarbamic acid, 1,1-dimethylethyl 1,1-dimethyl-2-phenylethyl ester] were, in that order, 96% and above 1200 nM.
For `COC(=O)N(C)[C@H](C(=O)N[C@@H](Cc1ccccc1)[C@H](O)CNC[C@@H](O)[C@H](Cc1ccccc1)NC(=O)OC(C)(C)C)C(C)(C)C` [Compound 320, [1S-[1R*,2S*,(2S*,3R*)]-[2,2-Dimethyl-1-[[[3-[[3-(1,1-dimethylethoxy)-carbonyl]amino]-2-hydroxy-4-phenylbutyl]amino]-2-hydroxy-1-(phenylmethyl)propyl]amino]-carbonyl]propyl]methylcarbamic acid, methyl ester], in that order: 100% and 220 nM.
For `CC(C)(C)OC(=O)N[C@@H](Cc1ccccc1)[C@H](O)CNC[C@@H](O)[C@H](Cc1ccccc1)NC(=O)OC1(C)CCOCC1` [Compound 166, [1S-(1R*,2S*)]-[Iminobis[2-hydroxy-1-(phenylmethyl)-3,1-propanediyl]]bis[carbamic acid], 1,1-dimethylethyl-4-methyltetrahydropyran-4-yl-ester], in that order: 89% and 1700 nM.
As for `CC(C)(C)OC(=O)N[C@@H](Cc1ccccc1)[C@H](O)CNC[C@@H](O)[C@H](Cc1ccc(OCc2ccccc2)cc1)NC(=O)OC(C)(C)C` [Compound 179, [1S-[1R*,2S*(2S*,3R*)]]-[3-[[3-[[(1,1-Dimethylethoxy)carbonyl]amino]-2-hydroxy-4-phenylbutyl]amino]-2-hydroxy-1-[[4-(phenylmethoxy)-phenyl]methyl]propyl]carbamic acid, 1,1-dimethylethyl ester], the inhibition at 10 µM in assay [1] worked out at 99%. In addition, the IC50 in assay [2] was determined as 170 nM.
The like results for `CC(C)(C)OC(=O)N[C@@H](Cc1ccccc1)[C@H](O)CNC[C@@H](O)[C@H](Cc1ccccc1)NC(=O)[C@@H](NC(=O)CNC=O)C(C)(C)C` (relative stereo) [Compound 286, [1R*,2S*(2S*,3R*)]-N-[3-[[(1,1-Dimethylethoxy)carbonyl]amino]-2-hydroxy-4-phenylbutyl]amino]-2-hydroxy-1-(phenylmethyl)propyl]-N^2-(N-formylglycyl)-3-methyl-L-valinamide] were, in that order, 99% and 5000 nM.
The like results for `CC(C)(C)OC(=O)N[C@@H](Cc1ccccc1)[C@H](O)CNC[C@@H](O)[C@H](Cc1cccc(OCc2ccccc2)c1)NC(=O)OC(C)(C)C` [Compound 28, [1S-[1R*,2S*(2S*,3R*)]]-[3-[[3-[[(1,1-Dimethylethoxy)-carbonyl]amino]-2-hydroxy-4-phenylbutyl]amino]-2-hydroxy-1-[[3-(phenylmethoxy)phenyl]methyl]propyl]carbamic acid, 1,1-dimethylethyl ester] were, in that order, 100% and 90 nM.
For `CC(C)(C)NC(=O)N[C@@H](Cc1ccccc1)[C@H](O)CNC[C@@H](O)[C@H](Cc1ccccc1)NC(=O)NC(C)(C)C` [Compound 47, [R-(R*,S*)]-N,N"-[Iminobis[2-hydroxy-1-(phenylmethyl)-3,1-propanediyl]]-bis[N'-(1,1-dimethylethyl)urea]], the inhibition at 10 µM in assay [1] was 81%. Moreover, the IC50 in assay [2] stood at 1100 nM.
With `CN(CC(O)C(Cc1ccccc1)NC(=O)OC(C)(C)C)CC(O)C(Cc1ccccc1)NC(=O)OC(C)(C)C` (stereo not drawn) [Compound 200, [1S-[1R*,2R*(1R*)]]-[3-[[3-[[(1,1-Dimethylethoxy)carbonyl]-amino]-2-hydroxy-4-phenylbutyl]-methylamino]-2-hydroxy-1-(phenylmethyl)propyl]-carbamic acid, 1,1-dimethylethyl ester], the inhibition at 10 µM in assay [1] was 5%. Moreover, in assay [2], the IC50 was above 15000 nM.
Turning to `CC(C)[C@H](NC(=O)[C@@H](O)Cc1ccccc1)C(=O)N[C@@H](Cc1ccccc1)[C@H](O)CNC[C@@H](O)[C@H](Cc1ccccc1)NC(=O)OC(C)(C)C` [Compound 77, [S-[1R*,2S*(2S*,3R*,N^2 R*]]-N-[3-[[3-[[(1,-Dimethylethoxy)carbonyl]amino]-2-hydroxy-4-phenylbutyl]amino]-2-hydroxy-(phenyyl-methyl)propyl]N^2-(2-hydroxy-1-oxo-3-phenyl-propyl)-L-valinamide], in assay [1], the inhibition at 10 µM amounted to 99%. The IC50 in assay [2] was 200 nM.
For `C[C@H](O)[C@H](NC(=O)OCc1ccccc1)C(=O)N[C@@H](Cc1ccccc1)[C@H](O)CNC[C@@H](O)[C@H](Cc1ccccc1)NC(=O)OC(C)(C)C` (relative stereo) [Compound 205, [1R*,2S*(2S*,3R*)]-N-[3-[[3-[[(1,1-Dimethylethoxy)carbonyl]amino]-2-hydroxy-4-phenylbutyl]amino]-2-hydroxy-1-(phenylmethyl)propyl]-N^2-[(phenylmethoxy)carbonyl]-L-allothreoninamide], in that order: 98% and 70 nM.
For `CN(CC(=O)[C@H](Cc1ccccc1)NC(=O)OC(C)(C)C)C[C@H](O)[C@H](Cc1ccccc1)NC(=O)OC(C)(C)C` [Compound 199, [1S-[1R*(2R*,3R*)]]-3-[[3[[-(1,1-Dimethylethoxy)carbonyl]-amino]-2-hydroxy-4-phenylbutyl]-methylamino]-2-oxo-1-(phenylmethyl)-propyl]carbamic acid, 1,1-dimethylethyl ester], in that order: 3% and above 17000 nM.
For the compound `C[C@H](NC=O)C(=O)N[C@H](C(=O)N[C@@H](Cc1ccccc1)[C@H](O)CNC[C@@H](O)[C@H](Cc1ccccc1)NC(=O)OC(C)(C)C)C(C)(C)C` (relative stereo) [Compound 284, [1R*,2S*(2S*,3R*)]-N-[3-[[(1,1-Dimethylethoxy)carbonyl]amino]-2-hydroxy-4-phenylbutyl]amino]-2-hydroxy-1-(phenylmethyl)propyl]-N^2-(N-formyl-L-alanyl)-3-methyl-L-valinamide], the inhibition at 10 µM in assay [1] turned out to be 100%. In addition, the IC50 in assay [2] came out at 4400 nM.
Regarding `CC(C)(C)OC(=O)N[C@@H](Cc1ccccc1)[C@H](O)CNC[C@@H](O)[C@H](Cc1ccccc1)NC(=O)OC(C)(C)C` [Compound 2, [1S-[1R*,2S*(2S*,3R*)]]-[3-[[3-[[(1,1-Dimethylethoxy)carbonyl]amino]-2-hydroxy-4-phenylbutyl]amino]-2-hydroxy-1-(phenylmethyl)propyl]carbamic acid, 1,1-dimethylethyl ester], the inhibition at 10 µM in assay [1] was 100%. For the same compound, the IC50 in assay [2] worked out at 90 nM.
On to `CNC(=O)N[C@H](C(=O)N[C@@H](Cc1ccccc1)[C@H](O)CNC[C@@H](O)[C@H](Cc1ccccc1)NC(=O)OC(C)(C)C)C(C)(C)C` (relative stereo) [Compound 263, [1R*,2S*(2S*,3R*)]-N-[3-[[3-[[(1,1-Dimethylethoxy)carbonyl]amino]-2-hydroxy-4-phenylbutyl]amino]-2-hydroxy-1-(phenylmethyl)propyl]-N^2-[(methylamino)carbonyl]-3-methyl-L-valinamide], for which the inhibition at 10 µM in assay [1] came out at 98%. In addition, in assay [2], the IC50 was 340 nM.
The like results for `CC(C)[C@H](NC(=O)Cc1nc2ccccc2[nH]1)C(=O)N[C@@H](Cc1ccccc1)[C@H](O)CNC[C@@H](O)[C@H](Cc1ccccc1)NC(=O)OC(C)(C)C` (relative stereo) [Compound 105, S-[1R*,2S*(2S*,3R*)]-N-[3-[[3-[[(1,1-Dimethylethoxy)carbonyl]amino]-2-hydroxy-4-phenylbutyl]amino]-2-hydroxy-1-(phenylmethyl)-propyl]-N^2-(1H-benzimidazol-2-ylacetyl)-L-valinamide] were, in that order, 99% and 1600 nM.

Source of the values: patent publication US5760036A, “Aminediol protease inhibitors” (E. R. Squibb & Sons, Inc., priority 1995, dated 1998).
